The values that follow come from patent US20230081426A1, “COMPOUNDS AND METHODS FOR KRAS MODULATION AND INDICATIONS THEREFOR” (Plexxikon Inc., priority 2020, published 2023).

Assay [1] addresses T1, G12D-mutant human KRAS (amino acid residues 1-188) (Homo sapiens, UniProt P01116, G12D).
T1 construct: G12D or G12C-mutant human KRAS (amino acid residues 1-188) with FLAG tag; made in house; host or cells: E. coli
As to the kind of experiment: KRAS Binding Disruption Assay (AlphaScreen; biotinylated KRpep-2d analogue or RAF1-RBD), G12D. The conditions noted are these: for IC50: geometric mean, read-out: KRAS GMean IC50 (uM) MUTATION: G12D. Put shortly:
(§1)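 Mutant KRAS (5-20 nM) incubated 1 h at 25° C with test compound and 5-20 nM biotinylated KRpep-2d analogue or RAF1-RBD in 20 mM HEPES pH 7.5, 100 mM NaCl, 5 mM MgCl2, 0.01% Tween-20, 0.01% BSA.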
For orientation: Alpha assays give light when donor and acceptor beads are brought close together.

Assay [2] has as its target T2, G12C-mutant human KRAS (amino acid residues 1-188) (Homo sapiens, UniProt P01116, G12C).
T2 construct: G12D or G12C-mutant human KRAS (amino acid residues 1-188) with FLAG tag; made in house; host or cells: E. coli
As to the kind of experiment: KRAS Binding Disruption Assay (AlphaScreen; biotinylated KRpep-2d analogue or RAF1-RBD), G12C. Particulars: geometric mean, read-out: KRAS GMean IC50 (uM) MUTATION: G12C. The procedure, abridged:
as §1

In assay [3] the target is T3, G12V-mutant human KRAS (amino acid residues 1-188) (Homo sapiens, UniProt P01116, G12V).
T3 construct: G12V-mutant human KRAS (amino acid residues 1-188) with FLAG tag was purified from E. coli; made in house; host or cells: E. coli
The assay is described as follows: KRAS Binding Competition Assay (AlphaScreen; biotinylated KRpep-2d analogue), G12V. Particulars: geometric mean, read-out: KRAS GMean IC50 (uM) MUTATION: G12V.

Molecules are shown by their SMILES. Like-named read-outs stand apart in the source and are kept apart here.

The term IC50 denotes the point on the concentration scale where inhibition reaches its midpoint. Take `NCC(=O)N1[C@@H]2CC[C@H]1CN(c1nc(OCC34CCCN3CCC4)nc3cc(-c4cc(O)cc5ccccc45)ccc13)C2` [P-0007, 2-amino-1-((1R,5S)-3-(7-(3-hydroxynaphthalen-1-yl)-2-((tetrahydro-1H-pyrrolizin-7a(5H)-yl)methoxy)quinazolin-4-yl)-3,8-diazabicyclo[3.2.1]octan-8-yl)ethan-1-one]: the IC50 in assay [1] (KRAS G12D), in assay [2] and in assay [3] was 0.0001 to 10 µM throughout.
With `O=C(CO)N1[C@@H]2CC[C@H]1CN(c1nc(OCC34CCCN3CCC4)nc3cc(-c4cc(O)cc5ccccc45)ccc13)C2` [P-0008, 2-hydroxy-1-((1R,5S)-3-(7-(3-hydroxynaphthalen-1-yl)-2-((tetrahydro-1H-pyrrolizin-7a(5H)-yl)methoxy)quinazolin-4-yl)-3,8-diazabicyclo[3.2.1]octan-8-yl)ethan-1-one], the IC50 in assay [1] (KRAS G12D), in assay [2] and in assay [3] was 0.0001 to 10 µM in each case.
For `CN1CCC[C@H]1COc1nc(N2C[C@H]3CC[C@@H](C2)N3)c2cc(F)c(-c3cc(O)cc4ccccc34)c(F)c2n1` [P-0009, 4-(4-((1R,5S)-3,8-diazabicyclo[3.2.1]octan-3-yl)-6,8-difluoro-2-(((S)-1-methylpyrrolidin-2-yl)methoxy)quinazolin-7-yl)naphthalen-2-ol], the IC50 in assay [1] (KRAS G12D), in assay [2] and in assay [3] was 0.0001 to 10 µM in each case.
Consider `Oc1cc(-c2c(F)cc3c(N4C[C@H]5CC[C@@H](C4)N5)nc(OCC45CCCN4CCC5)nc3c2F)c2ccccc2c1` [P-0010, 4-(4-((1R,5S)-3,8-diazabicyclo[3.2.1]octan-3-yl)-6,8-difluoro-2-((tetrahydro-1H-pyrrolizin-7a(5H)-yl)methoxy)quinazolin-7-yl)naphthalen-2-ol], for which the IC50 in assay [1] (KRAS G12D), in assay [2] and in assay [3] was 0.0001 to 10 µM in each case.
Consider `Cc1c(-c2cc(O)cc3ccccc23)ccc2c(N3C[C@H]4CC[C@@H](C3)N4)nc(OCC34CCCN3CCC4)nc12` [P-0015, 4-(4-((1R,5S)-3,8-diazabicyclo[3.2.1]octan-3-yl)-8-methyl-2-((tetrahydro-1H-pyrrolizin-7a(5H)-yl)methoxy)quinazolin-7-yl)naphthalen-2-ol], for which the IC50 in assay [1] (KRAS G12D), in assay [2] and in assay [3] was 0.0001 to 10 µM each time.
In the case of `CN1[C@@H]2CC[C@H]1CN(c1nc(OCC34CCCN3CCC4)nc3cc(-c4cc(O)cc5ccccc45)ccc13)C2` [P-0017, 4-(4-((1R,5S)-8-methyl-3,8-diazabicyclo[3.2.1]octan-3-yl)-2-((tetrahydro-1H-pyrrolizin-7a(5H)-yl)methoxy)quinazolin-7-yl)naphthalen-2-ol], the figures for the IC50 in assay [1] (KRAS G12D), in assay [2] and in assay [3] were 0.0001 to 10 µM, 10 to 100 µM and 10 to 100 µM, respectively.
Take `CN1CCC[C@H]1COc1nc(N2C[C@H]3CC[C@@H](C2)N3)c2cc(C#N)c(-c3cc(O)cc4ccccc34)c(F)c2n1` [P-0021, 4-((1R,5S)-3,8-diazabicyclo[3.2.1]octan-3-yl)-8-fluoro-7-(3-hydroxynaphthalen-1-yl)-2-(((S)-1-methylpyrrolidin-2-yl)methoxy)quinazoline-6-carbonitrile]: the IC50 in assay [1] (KRAS G12D), in assay [2] and in assay [3] was 0.0001 to 10 µM in each case.
Consider `CN1CCC[C@H]1COc1nc(N2C[C@H]3CC[C@@H](C2)N3)c2cc(C(=O)O)c(-c3cc(O)cc4ccccc34)c(F)c2n1` [P-0024, 4-(3,8-Diazabicyclo[3.2.1]octan-3-yl)-8-fluoro-7-(3-hydroxy-1-naphthyl)-2-[[(2S)-1-methylpyrrolidin-2-yl]methoxy]quinazoline-6-carboxylic acid], for which the results for the IC50 in assay [1] (KRAS G12D), in assay [2] and in assay [3] were 0.0001 to 10 µM, 10 to 100 µM and 0.0001 to 10 µM, respectively.
On to `CN1CCC[C@H]1COc1nc(N2C[C@H]3CC[C@@H](C2)N3)c2cc(Cl)c(-c3c(O)cccc3F)c(F)c2n1` [P-0027, 2-(4-((1R,5S)-3,8-diazabicyclo[3.2.1]octan-3-yl)-6-chloro-8-fluoro-2-(((S)-1-methylpyrrolidin-2-yl)methoxy)quinazolin-7-yl)-3-fluorophenol], for which the IC50 in assay [1] (KRAS G12D) was 0.0001 to 10 µM; in assay [1] (Table 3, bridged vs non-bridged R1), 0.038 µM; in assay [2], 10 to 100 µM; in assay [3] it was 10 to 100 µM. Also, the “Improved KRAS G12D Biochemical Potency of Compounds with Bridged vs Non-Bridged R^1 Groups” value in assay [1] (Table 3, fold more potent than non-bridged version at the R1 variable) is given as “P-0027 is about 392 times more potent than its non- bridged version at the R^1 variable”.
With `CN1CCC[C@H]1COc1nc(N2CC3CCC2CN3)c2cc(Cl)c(-c3cc(O)cc4ccccc34)c(F)c2n1` (stereo partly drawn) [P-0030, 4-(4-(2,5-diazabicyclo[2.2.2]octan-2-yl)-6-chloro-8-fluoro-2-(((S)-1-methylpyrrolidin-2-yl)methoxy)quinazolin-7-yl)naphthalen-2-ol], the IC50 in assay [1] (KRAS G12D) was in the range of 0.0001 to 10 µM; in assay [2], 10 to 100 µM; in assay [3] it was 10 to 100 µM.
Turning to `CN1CCC(Oc2nc(N3C[C@H]4CC[C@@H](C3)N4)c3cc(Cl)c(-c4cc(O)cc5ccccc45)c(F)c3n2)CC1` [P-0032, 4-(4-((1R,5S)-3,8-diazabicyclo[3.2.1]octan-3-yl)-6-chloro-8-fluoro-2-((1-methylpiperidin-4-yl)oxy)quinazolin-7-yl)naphthalen-2-ol], the IC50 in assay [1] (KRAS G12D) was in the range of 0.0001 to 10 µM; in assay [2], 10 to 100 µM; in assay [3] it was 10 to 100 µM.
In the case of `Oc1cc(-c2c(Cl)cc3c(N4C[C@H]5CC[C@@H](C4)N5)nc(OCC45CCCN4CCC5)nc3c2F)c2ccccc2c1` [P-0034, 4-(4-((1R,5S)-3,8-diazabicyclo[3.2.1]octan-3-yl)-6-chloro-8-fluoro-2-((tetrahydro-1H-pyrrolizin-7a(5H)-yl)methoxy)quinazolin-7-yl)naphthalen-2-ol], the IC50 in assay [1] (KRAS G12D), in assay [2] and in assay [3] was 0.0001 to 10 µM each time.
With `CN1CCC[C@H]1COc1nc(N2C[C@H]3CC[C@@H](C2)N3)c2ccc(-c3cc(O)cc4ccccc34)cc2n1` [P-0037, 4-(4-((1R,5S)-3,8-diazabicyclo[3.2.1]octan-3-yl)-2-(((S)-1-methylpyrrolidin-2-yl)methoxy)quinazolin-7-yl)naphthalen-2-ol], the IC50 in assay [1] (KRAS G12D), in assay [2] and in assay [3] was 0.0001 to 10 µM in each case.
Consider `CN1CCC[C@H]1COc1nc(N2CC3CC2CN3)c2cc(Cl)c(-c3cc(O)cc4ccccc34)c(F)c2n1` (stereo partly drawn) [P-0038, 4-(4-(2,5-diazabicyclo[2.2.1]heptan-2-yl)-6-chloro-8-fluoro-2-(((S)-1-methylpyrrolidin-2-yl)methoxy)quinazolin-7-yl)naphthalen-2-ol], for which the IC50 in assay [1] (KRAS G12D) lay in the range of 0.0001 to 10 µM; in assay [2], 10 to 100 µM; in assay [3], 10 to 100 µM.
Turning to `CN1CCC[C@H]1COc1nc(N2C[C@H]3CC[C@@H](C2)N3)c2ccc(-c3cc(O)cc4ccccc34)c(F)c2n1` [P-0044, 4-(4-((1R,5S)-3,8-diazabicyclo[3.2.1]octan-3-yl)-8-fluoro-2-(((S)-1-methylpyrrolidin-2-yl)methoxy)quinazolin-7-yl)naphthalen-2-ol], the IC50 in assay [1] (KRAS G12D), in assay [2] and in assay [3] was 0.0001 to 10 µM throughout.
Consider `Oc1cc(-c2ccc3c(N4C[C@H]5CC[C@@H](C4)N5)nc(OCC45CCCN4CCC5)nc3c2F)c2ccccc2c1` [P-0048, 4-(4-((1R,5S)-3,8-diazabicyclo[3.2.1]octan-3-yl)-8-fluoro-2-((tetrahydro-1H-pyrrolizin-7a(5H)-yl)methoxy)quinazolin-7-yl)naphthalen-2-ol], for which the 50% inhibitory concentration (IC50) in assay [1] (KRAS G12D), in assay [2] and in assay [3] was 0.0001 to 10 µM each time.
As to `Oc1cccc(F)c1-c1ccc2c(N3C[C@H]4CC[C@@H](C3)N4)nc(OCC34CCCN3CCC4)nc2c1F` [P-0049, 2-(4-((1R,5S)-3,8-diazabicyclo[3.2.1]octan-3-yl)-8-fluoro-2-((tetrahydro-1H-pyrrolizin-7a(5H)-yl)methoxy)quinazolin-7-yl)-3-fluorophenol], the IC50 in assay [1] (KRAS G12D) was in the range of 0.0001 to 10 µM; in assay [2], 10 to 100 µM; in assay [3] it was 100 to 1000 µM.
In the same order, the values of `Oc1cc(-c2ccc3c(C4C[C@H]5CC[C@@H](C4)N5)nc(OCC45CCCN4CCC5)nc3c2)c2ccccc2c1` (stereo partly drawn) [P-0053, 4-(4-((1R,5S)-8-azabicyclo[3.2.1]octan-3-yl)-2-((tetrahydro-1H-pyrrolizin-7a(5H)-yl)methoxy)quinazolin-7-yl)naphthalen-2-ol] are 0.0001 to 10 µM, 10 to 100 µM and 10 to 100 µM.
As to `Oc1cc(-c2ncc3c(N4C[C@H]5CC[C@@H](C4)N5)nc(OCC45CCCN4CCC5)nc3c2F)c2ccccc2c1` [P-0055, 4-(4-((1R,5S)-3,8-diazabicyclo[3.2.1]octan-3-yl)-8-fluoro-2-((tetrahydro-1H-pyrrolizin-7a(5H)-yl)methoxy)pyrido[4,3-d]pyrimidin-7-yl)naphthalen-2-ol], the IC50 in assay [1] (KRAS G12D), in assay [2] and in assay [3] was 0.0001 to 10 µM throughout.
On to `CN1CCC[C@H]1COc1nc(N2C[C@H]3CC[C@@H](C2)N3)c2cc(CO)c(-c3cc(O)cc4ccccc34)c(F)c2n1` [P-0056, 4-[4-(3,8-diazabicyclo[3.2.1]octan-3-yl)-8-fluoro-6-(hydroxymethyl)-2-[[(2S)-1-methylpyrrolidin-2-yl]methoxy]quinazolin-7-yl]naphthalen-2-ol], for which the IC50 in assay [1] (KRAS G12D), in assay [2] and in assay [3] was 0.0001 to 10 µM throughout.
